Results as given in PMC6688371, “Effect of the inhaled PDE4 inhibitor CHF6001 on biomarkers of inflammation in COPD” (Respiratory Research, 2019).

Columns and labels:
TNFα = assay: Ex-vivo lipopolysaccharide (LPS) stimulated TNFα in whole blood; design: species or system human; conditions: Day 32, geometric mean (%CV)
Source text: A patient had to have a minimum of one acceptable sputum sample on Day 20, 26 or 32 to be included in the sputum biomarker evaluation for that treatment period, with the available cell count and biomarker data averaged for each patient. The mean change from baseline (pre-dose on Day 1 of each treatment period) was then compared between treatments using an analysis of covariance (ANCOVA) that included treatment, patient and period as fixed effects, and baseline values as covariate. The mean change from baseline to Day 32 for biomarkers in blood were analysed using the same model as for sputum data. All data were log-transformed before analysis, and the results are presented as ratio of geometric means. […]
Approximately 80 to 100 cells were to be counted per square , with the number of live leukocytes, dead leukocytes and squamous cells counted. […]
Only one of the sputum samples induced at 2 h post-dose on Days 20, 26 or 32 was used to evaluate CHF6001 concentration, with the evaluation performed only if a minimum of 300 mg of residual sputum remained. […] The concentration of CHF6001 was evaluated using a LC-MS/MS method following solid phase extraction. […]
The levels of inflammatory biomarkers were evaluated from blood collected at 2 h post-dose […]
Levels of biomarkers were assessed as follows: […]
• Serum SP-D: Sandwich Immunoassay, using PheraSTAR Plate Reader . […]

patients with COPD = assay: Safety and tolerability (adverse events, vital signs, ECG, laboratory data)
Source text: The Safety population is all randomised patients who received at least one dose of study medication.

Structure (SMILES): CS(=O)(=O)Nc1ccc(C(=O)O[C@@H](Cc2c(Cl)c[n+]([O-])cc2Cl)c2ccc(OC(F)F)c(OCC3CC3)c2)cc1OCC1CC1 [CHF6001]
- Tumour necrosis factor α ex-vivo, post-baseline (TNFα; 800 µg BID): 2096.916 (177.0) pg/mL
- Tumour necrosis factor α ex-vivo, post-baseline (TNFα; 1600 µg BID): 1750.418 (192.0) pg/mL
- Adverse events (patients with COPD; 800 μg BID (N = 58)): 30 (51.7) patients (%)
- Adverse events leading to study drug withdrawal (patients with COPD; 800 μg BID (N = 58)): 3 (5.2) patients (%)
- Adverse events with a fatal outcome (patients with COPD; 800 μg BID (N = 58)): 0 patients (%)
- Back pain (patients with COPD; 800 μg BID (N = 58)): 4 (6.9) patients (%)
- Cough (patients with COPD; 800 μg BID (N = 58)): 1 (1.7) patients (%)
- Diarrhoea (patients with COPD; 800 μg BID (N = 58)): 3 (5.2) patients (%)
- Drug-related adverse events (patients with COPD; 800 μg BID (N = 58)): 1 (1.7) patients (%)
- Drug-related adverse events: Dry mouth (patients with COPD; 800 μg BID (N = 58)): 0 patients (%)
- Drug-related adverse events: Sleep disorders (patients with COPD; 800 μg BID (N = 58)): 1 (1.7) patients (%)
- Drug-related serious adverse events (patients with COPD; 800 μg BID (N = 58)): 0 patients (%)
- Fatigue (patients with COPD; 800 μg BID (N = 58)): 1 (1.7) patients (%)
- Headache (patients with COPD; 800 μg BID (N = 58)): 1 (1.7) patients (%)
- Nasopharyngitis (patients with COPD; 800 μg BID (N = 58)): 5 (8.6) patients (%)
- Oropharyngeal pain (patients with COPD; 800 μg BID (N = 58)): 3 (5.2) patients (%)
- Serious adverse events (patients with COPD; 800 μg BID (N = 58)): 2 (3.4) patients (%)
- Severe adverse events (patients with COPD; 800 μg BID (N = 58)): 0 patients (%)
- Tension headache (patients with COPD; 800 μg BID (N = 58)): 1 (1.7) patients (%)
- Toothache (patients with COPD; 800 μg BID (N = 58)): 3 (5.2) patients (%)
- Patients reporting gastrointestinal adverse events (patients with COPD; 800 μg BID, seven patients): 12.1%
- Adverse events (patients with COPD; 1600 μg BID (N = 59)): 33 (55.9) patients (%)
- Adverse events leading to study drug withdrawal (patients with COPD; 1600 μg BID (N = 59)): 2 (3.4) patients (%)
- Adverse events with a fatal outcome (patients with COPD; 1600 μg BID (N = 59)): 0 patients (%)
- Back pain (patients with COPD; 1600 μg BID (N = 59)): 1 (1.7) patients (%)
- Cough (patients with COPD; 1600 μg BID (N = 59)): 3 (5.1) patients (%)
- Diarrhoea (patients with COPD; 1600 μg BID (N = 59)): 1 (1.7) patients (%)
- Drug-related adverse events (patients with COPD; 1600 μg BID (N = 59)): 1 (1.7) patients (%)
- Drug-related adverse events: Dry mouth (patients with COPD; 1600 μg BID (N = 59)): 1 (1.7) patients (%)
- Drug-related adverse events: Sleep disorders (patients with COPD; 1600 μg BID (N = 59)): 0 patients (%)
- Drug-related serious adverse events (patients with COPD; 1600 μg BID (N = 59)): 0 patients (%)
- Fatigue (patients with COPD; 1600 μg BID (N = 59)): 3 (5.1) patients (%)
- Headache (patients with COPD; 1600 μg BID (N = 59)): 7 (11.9) patients (%)
- Nasopharyngitis (patients with COPD; 1600 μg BID (N = 59)): 6 (10.2) patients (%)
- Oropharyngeal pain (patients with COPD; 1600 μg BID (N = 59)): 2 (3.4) patients (%)
- Serious adverse events (patients with COPD; 1600 μg BID (N = 59)): 2 (3.4) patients (%)
- Severe adverse events (patients with COPD; 1600 μg BID (N = 59)): 1 (1.7) patients (%)
- Tension headache (patients with COPD; 1600 μg BID (N = 59)): 3 (5.1) patients (%)
- Toothache (patients with COPD; 1600 μg BID (N = 59)): 1 (1.7) patients (%)
- Patients reporting gastrointestinal adverse events (patients with COPD; 1600 μg BID, six patients): 10.2%
- Haematology or biochemistry data, between treatments (patients with COPD; 800 or 1600 μg BID and placebo): no major differences
- Systolic or diastolic blood pressure, heart rate or Fridericia's corrected QT interval vs placebo (patients with COPD; either dose (800 or 1600 μg BID)): no differences
